Measured values taken from US20040076974A1, “Liver necrosis predictive genes” (priority 2002, published 2004).
Where “and” joins values, the source holds several entries; their conditions need not be identical. Equal values may be shown once. Read-outs that look alike come from different tables or passages of the source.

What was measured:
[1] = test system: toxicologically relevant rat genes (rat CT array)
[2] = test system: Sprague Dawley rats
In short: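 Toxicity calls (necrosis present or absent at 72 h) and histopathology scores were correlated with tissue gene expression from Crl:CD Sprague Dawley rats. Animals, usually 3 treated with compound by i.p. route and 3 given vehicle, were killed at 6, 24 or 72 h and tissues frozen immediately in liquid nitrogen.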

[3] = 24 h, treatment/control, dose 2, listed as CHEX

C[C@@H]1C[C@@H]([C@H](O)CC2CC(=O)NC(=O)C2)C(=O)[C@@H](C)C1 [cycloheximide]
Aflatoxin B1 aldehyde reductase expression ([1]; 24 h): 0.3081 and 0.5569
3-hydroxyisobutyrate dehydrogenase expression [1, 3]: 0.7822 and 0.6854
14-3-3 zeta expression [1, 3]: 1.308 and 1.217
17-beta hydroxysteroid dehydrogenase, type 2 expression [1, 3]: 0.8086 and 0.8289
60S ribosomal protein L6 expression [1, 3]: 4.046 and 3.164
ATPase inhibitor (rat mitochondrial IF1 protein) expression [1, 3]: 1.104
Alpha 1 - inhibitor III expression [1, 3]: 0.1985 and 0.3033
Alpha-2-macroglobulin expression [1, 3]: 8.537 and 10.8864
Bax (alpha) expression [1, 3]: 3.909 and 3.079
Beta-actin expression [1, 3]: 1.582
Calpactin I heavy chain expression [1, 3]: 1.21 and 1.278
Carbamyl phosphate synthetase I expression [1, 3]: 2.339 and 1.425
Carbonic anhydrase III expression [1, 3]: 0.09817 and 0.117
Cathepsin L, sequence 2 expression [1, 3]: 3.293 and 1.752
Dynamin-1 (D100) expression [1, 3]: 0.7964 and 0.6968
Epidermal growth factor expression [1, 3]: 0.7851 and 0.8391
Equilbrative nitrobenzylthioinosine-sensitive nucleoside transporter expression [1, 3]: 0.434 and 0.4974
Fas antigen expression [1, 3]: 1.655 and 1.544
Gadd45 expression [1, 3]: 1.068 and 0.9225
Gadd153 expression [1, 3]: 2.348 and 2.179
Gamma-actin, cytoplasmic expression [1, 3]: 2.831 and 2.8
Glucose-regulated protein 78 expression [1, 3]: 1.943
Hepatic lipase expression [1, 3]: 0.425 and 0.4085
ID-1 expression [1, 3]: 1.831 and 1.476
Insulin-like growth factor I expression [1, 3]: 0.632 and 0.7238
Insulin-like growth factor binding protein 1 expression [1, 3]: 1.891
Insulin-like growth factor binding protein 3 expression [1, 3]: 0.6015 and 0.8706
Integrin beta1 expression [1, 3]: 1.973 and 1.549
L-gulono-gamma-lactone oxidase expression [1, 3]: 0.1815 and 0.3251
Matrin F/G expression [1, 3]: 0.6684 and 0.8266
Monocyte chemotactic protein receptor (CCR2) expression [1, 3]: 1.356
Organic anion transporter 3 expression [1, 3]: 0.6196 and 0.8226
Organic cation transporter 3 expression [1, 3]: 3.288 and 2.799
Ornithine decarboxylase expression [1, 3]: 1.809 and 2.529
PAR interacting protein expression [1, 3]: 2.494 and 1.775
Phase-1 RCT 252 expression [1, 3]: 2.109
Phase-1 RCT-15 expression [1, 3]: 2.098
Phase-1 RCT-36 expression [1, 3]: 0.9535
Phase-1 RCT-38 expression [1, 3]: 0.8074 and 1.436
Phase-1 RCT-40 expression [1, 3]: 0.5868 and 0.6253
Phase-1 RCT-48 expression [1, 3]: 0.8259
Phase-1 RCT-50 expression [1, 3]: 3.394 and 1.867
Phase-1 RCT-78 expression [1, 3]: 0.6678 and 0.6463
Phase-1 RCT-83 expression [1, 3]: 0.7709 and 0.5883
Phase-1 RCT-88 expression [1, 3]: 0.5622 and 0.699
Phase-1 RCT-89 expression [1, 3]: 0.3912 and 0.666
Phase-1 RCT-92 expression [1, 3]: 0.5483 and 0.6236
Phase-1 RCT-102 expression [1, 3]: 0.1629 and 0.3219
Phase-1 RCT-117 expression [1, 3]: 0.5435 and 0.8114
Phase-1 RCT-128 expression [1, 3]: 0.7358 and 0.5601
Phase-1 RCT-137 expression [1, 3]: 0.897
Phase-1 RCT-144 expression [1, 3]: 1.698 and 1.552
Phase-1 RCT-145 expression [1, 3]: 1.962 and 1.531
Phase-1 RCT-152 expression [1, 3]: 3.068 and 2.149
Phase-1 RCT-179 expression [1, 3]: 1.874 and 1.726
Phase-1 RCT-180 expression [1, 3]: 1.992 and 1.731
Phase-1 RCT-182 expression [1, 3]: 0.648 and 0.4739
Phase-1 RCT-189 expression [1, 3]: 0.7556 and 0.7413
Phase-1 RCT-207 expression [1, 3]: 3.54 and 2.206
Phase-1 RCT-213 expression [1, 3]: 2.298 and 1.558
Phase-1 RCT-241 expression [1, 3]: 2.805 and 1.626
Phase-1 RCT-256 expression [1, 3]: 0.7478
Phase-1 RCT-264 expression [1, 3]: 0.3258 and 0.288
Phase-1 RCT-270 expression [1, 3]: 0.3824 and 0.3779
Phase-1 RCT-271 expression [1, 3]: 0.6863 and 0.7351
Phase-1 RCT-288 expression [1, 3]: 0.7066 and 0.6813
Phase-1 RCT-291 expression [1, 3]: 0.9117
Phase-1 RCT-295 expression [1, 3]: 1.809 and 1.772
Phase-1 RCT-296 expression [1, 3]: 0.1325 and 0.1028
Ribosomal protein L13A expression [1, 3]: 3.222 and 2.597
Ribosomal protein S17 expression [1, 3]: 3.701 and 3.311
Sodium/bile acid cotransporter expression [1, 3]: 0.2803 and 0.3733
Transthyretin expression [1, 3]: 0.3341 and 0.2879
Ubiquitin conjugating enzyme (RAD 6 homologue) expression [1, 3]: 1.788 and 1.624
c-jun expression [1, 3]: 1.591 and 1.111
c-myc expression [1, 3]: 1.683 and 1.143
Paraoxonase 1 expression ([1]; rat, in vivo): 0.4607 and 0.4822
Liver Toxicity Necrosis Classification ([2]; 72 h, dose 0.5): no
Liver Toxicity Necrosis Classification ([2]; 72 h; dose 2; animals 2257-2259): no
Liver Toxicity Necrosis Classification ([2]; compound-dose group CHEX 0.5; at 72 h): no
Liver Toxicity Necrosis Classification ([2]; compound-dose group CHEX 2; at 72 h): no
Liver Toxicity Necrosis Classification ([2]; compound-dose group at 72 h, dose 0.5): no
Liver Toxicity Necrosis Classification ([2]; compound-dose group at 72 h, dose 2): no
Liver Toxicity Necrosis Classification ([2]; compound-dose group at 72 h; dose 2): no
Liver Necrosis ([2]; rat, intraperitoneal, dose 0.5 mg/kg, 72 hours after treatment): no
Score (histopathology liver necrosis severity score) ([2]; rat, intraperitoneal, dose 0.5 mg/kg, 72 hours; 1 = not remarkable, 2 and higher increasing severity): 1
Liver Necrosis ([2]; rat, intraperitoneal, dose 2 mg/kg, 72 hours after treatment): no
Score (histopathology liver necrosis severity score) ([2]; rat, intraperitoneal, dose 2 mg/kg, 72 hours; 1 = not remarkable, 2 and higher increasing severity): 1
